Results on 30 compounds are retold here after patent US8129380B2, “Phthalazinone derivatives” (AstraZeneca AB, priority 2008, dated 2012).

Molecules are shown by their SMILES.

The assay relates to HeLa cells. Description: Potentiation Factor (PF50): MMS growth inhibition, SRB assay. In kind it is cell-based. As to conditions: MMS 0-10 μg/ml, ratio IC50 control / IC50 + inhibitor; for PF50 (30 nM): PARP inhibitor at 30 nM; for PF50 (200 nM): PARP inhibitor at 200 nM. The protocol: The Potentiation Factor (PF50) for compounds is calculated as a ratio of the IC50 of control cell growth divided by the IC50 of cell growth+PARP inhibitor. Growth inhibition curves for both control and compound treated cells are in the presence of the alkylating agent methyl methanesulfonate (MMS). The test compounds were used at a fixed concentration of 0.2 micromolar. The concentrations of MMS were over a range from 0 to 10 μg/ml.
2,000 HeLa cells were seeded into each well of a flat-bottomed 96-well microtiter plate in a volume of 100 μl and incubated for 6 hours at 37° C. Cells were either replaced with media alone or with media containing PARP inhibitor at a final concentration of 30 nM or 200 nM. […] Cells treated with PARP inhibitor alone were used to assess the growth inhibition by the PARP inhibitor.
Cells were left for a further 16 hours before replacing the media and allowing the cells to grow for a further 72 hours at 37° C. The media was then removed and the cells fixed with 100 μl of ice cold 10% (w/v) trichloroacetic acid. The plates were incubated at 4° C. for 20 minutes and then washed four times with water. Each well of cells was then stained with 100 μl of 0.4% (w/v) SRB in 1% acetic acid for 20 minutes before washing four times with 1% acetic acid. Plates were then dried for 2 hours at room temperature. The dye from the stained cells was solubilized by the addition of 100 μl of 10 mM Tris Base into each well.
(Sulforhodamine B stains cellular protein and so reports cell mass.)

Consider `O=C(c1cc(Cc2n[nH]c(=O)c3ccccc23)ccc1F)N1CCC(OC(CF)CF)CC1` [Compound 29, 4-(3-(4-(1,3-difluoropropan-2-yloxy)piperidine-1-carbonyl)-4-fluorobenzyl)phthalazin-1(2H)-one], for which the “PF50 (30 nM)” value was determined as 25.9.
`O=C(c1cc(Cc2n[nH]c(=O)c3ccccc23)ccc1F)N1CCC(OC2CCCC2)CC1` [Compound 36, 4-(3-(4-(cyclopentyloxy)piperidine-1-carbonyl)-4-fluorobenzyl)phthalazin-1(2H)-one]: the “PF50 (30 nM)” value was determined as 14.5 and the “PF50 (200 nM)” value was 24.3.
`O=C(c1cccc(Cc2n[nH]c(=O)c3ccccc23)c1)N1CCC(OC2CCCC2)CC1` [Compound 37, 4-(3-(4-(cyclopentyloxy)piperidine-1-carbonyl)benzyl)phthalazin-1(2H)-one]: the “PF50 (30 nM)” value amounted to 1.7 and the “PF50 (200 nM)” value amounted to 10.6.
Take `Cc1cccc(OC2CCN(C(=O)c3cc(Cc4n[nH]c(=O)c5ccccc45)ccc3F)CC2)n1` [Compound 39, 4-(4-fluoro-3-(4-(6-methylpyridin-2-yloxy)piperidine-1-carbonyl)benzyl)phthalazin-1(2H)-one]: the “PF50 (30 nM)” value is recorded as 1.4.
For the compound `O=C(c1cc(Cc2n[nH]c(=O)c3ccccc23)ccn1)N1CCC(OC2CCCC2)CC1` [Compound 40, 4-((2-(4-(cyclopentyloxy)piperidine-1-carbonyl)pyridin-4-yl)methyl)phthalazin-1(2H)-one], the “PF50 (30 nM)” value stood at 2.2 and the “PF50 (200 nM)” value worked out at 19.8.
Taken in the same sequence, the figures for `COC1CCN(C(=O)c2cc(Cc3n[nH]c(=O)c4cccc(N)c34)ccc2F)CC1` [Compound 46, 5-amino-4-(4-fluoro-3-(4-methoxypiperidine-1-carbonyl)benzyl)phthalazin-1(2H)-one] were 20.1 and 3.24.
Regarding `CCOC1CCN(C(=O)c2cccc(Cc3n[nH]c(=O)c4ccccc34)c2)CC1` [Compound 47a, 4-(3-(4-ethoxypiperidine-1-carbonyl)benzyl)phthalazin-1(2H)-one], the “PF50 (30 nM)” value turned out to be 1.8.
The same measure, in the same setting: with `CCOC1CCN(C(=O)c2cc(Cc3n[nH]c(=O)c4c(C)[nH]c(C)c34)ccc2F)CC1` [Compound 54, 4-(3-(4-ethoxypiperidine-1-carbonyl)-4-fluorobenzyl)-5,7-dimethyl-2,6-dihydro-1H-pyrrolo[3,4-d]pyridazin-1-one] the figure was 1.3.
Take `COC1CCN(C(=O)c2cc(Cc3n[nH]c(=O)c4c(C)[nH]c(C)c34)ccc2F)CC1` [Compound 58, 4-(4-fluoro-3-(4-methoxypiperidine-1-carbonyl)benzyl)-5,7-dimethyl-2,6-dihydro-1H-pyrrolo[3,4-d]pyridazin-1-one]: the “PF50 (30 nM)” value amounted to 1.0.
On the same count and under the same terms, then `COC1CCN(C(=O)c2cc(Cc3n[nH]c(=O)c4c(C)n(C)c(C)c34)ccc2F)CC1` [Compound 60, 4-(4-fluoro-3-(4-methoxypiperidine-1-carbonyl)benzyl)-5,6,7-trimethyl-2,6-dihydro-1H-pyrrolo[3,4-d]pyridazin-1-one], with 1.0.
The same measure, in the same setting: then `COC1CCN(C(=O)c2cc(Cc3n[nH]c(=O)c4c[nH]c(C)c34)ccc2F)CC1` [Compound 63, 4-(4-fluoro-3-(4-methoxypiperidine-1-carbonyl)benzyl)-5-methyl-2,6-dihydro-1H-pyrrolo[3,4-d]pyridazin-1-one], with 1.0.
In the case of `COC1CCN(C(=O)c2cc(Cc3n[nH]c(=O)c4cc(Cl)ccc34)ccc2F)CC1` [Compound 69, 7-chloro-4-(4-fluoro-3-(4-methoxypiperidine-1-carbonyl)benzyl)phthalazin-1(2H)-one], the “PF50 (30 nM)” value is recorded as 1.7.
On to `CC(C)(C)OC1CCN(C(=O)c2cc(Cc3n[nH]c(=O)c4ccccc34)ccc2F)CC1` [Compound 70, 4-(3-(4-tert-butoxypiperidine-1-carbonyl)-4-fluorobenzyl)phthalazin-1(2H)-one], for which the “PF50 (30 nM)” value is 32.1 and the “PF50 (200 nM)” value is given as 19.5.
Take `CC(C)(C)OC1CCN(C(=O)c2cccc(Cc3n[nH]c(=O)c4ccccc34)c2)CC1` [Compound 71, 4-[[3-[4-[(2-methylpropan-2-yl)oxy]piperidine-1-carbonyl]phenyl]methyl]-2H-phthalazin-1-one]: the “PF50 (30 nM)” value was 4.0 and the “PF50 (200 nM)” value was 8.9.
On to `CC(C)(C)OC1CCN(C(=O)c2cc(Cc3n[nH]c(=O)c4ccccc34)ccn2)CC1` [Compound 73, 4-((2-(4-tert-butoxypiperidine-1-carbonyl)pyridin-4-yl)methyl)phthalazin-1(2H)-one], for which the “PF50 (30 nM)” value is recorded as 6.2 and the “PF50 (200 nM)” value amounted to 27.8.
Regarding `CC1(O)CCN(C(=O)c2cc(Cc3n[nH]c(=O)c4ccccc34)ccc2F)CC1` [Compound 74, 4-(4-fluoro-3-(4-hydroxy-4-methylpiperidine-1-carbonyl)benzyl)phthalazin-1(2H)-one], the “PF50 (30 nM)” value came to 1.5.
With `O=C(COC1CCN(C(=O)c2cc(Cc3n[nH]c(=O)c4ccccc34)ccc2F)CC1)N1CCOCC1` [Compound 77, 4-(4-fluoro-3-(4-(2-morpholino-2-oxoethoxy)piperidine-1-carbonyl)benzyl)phthalazin-1(2H)-one], the “PF50 (30 nM)” value was 3.1.
On the same count and under the same terms, with `O=C(c1cc(Cc2n[nH]c(=O)c3ccccc23)ccc1F)N1CCC(OCCN2CCOCC2)CC1` [Compound 80, 4-(4-fluoro-3-(4-(2-morpholinoethoxy)piperidine-1-carbonyl)benzyl)phthalazin-1(2H)-one] the figure was 1.5.
For the compound `CN(C)C(=O)COC1CCN(C(=O)c2cc(Cc3n[nH]c(=O)c4ccccc34)ccc2F)CC1` [Compound 83, 2-(1-(2-fluoro-5-((4-oxo-3,4-dihydrophthalazin-1-yl)methyl)benzoyl)piperidin-4-yloxy)-N,N-dimethylacetamide], the “PF50 (30 nM)” value turned out to be 1.7.
The same measure, in the same setting: then `O=C(COC1CCN(C(=O)c2cc(Cc3n[nH]c(=O)c4ccccc34)ccc2F)CC1)N1CC(F)(F)C1` [Compound 89, 4-(3-(4-(2-(3,3-difluoroazetidin-1-yl)-2-oxoethoxy)piperidine-1-carbonyl)-4-fluorobenzyl)phthalazin-1(2H)-one], with 1.9.
On the same count and under the same terms, then `O=C(O)COC1CCN(C(=O)c2cc(Cc3n[nH]c(=O)c4ccccc34)ccc2F)CC1` [Compound 90, 2-(1-(2-fluoro-5-((4-oxo-3,4-dihydrophthalazin-1-yl)methyl)benzoyl)piperidin-4-yloxy)acetic acid], with 1.1; and `COC[C@H](C)OC1CCN(C(=O)c2cc(Cc3n[nH]c(=O)c4ccccc34)ccc2F)CC1` [Compound 93, (S)-4-(4-fluoro-3-(4-(1-methoxypropan-2-yloxy)piperidine-1-carbonyl)benzyl)phthalazin-1(2H)-one], with 2.8.
Regarding `COC1CCN(C(=O)c2cc(Cc3n[nH]c(=O)c4ccc(N)cc34)ccc2F)CC1` [Compound 99, 6-amino-4-(4-fluoro-3-(4-methoxypiperidine-1-carbonyl)benzyl)phthalazin-1(2H)-one], the “PF50 (30 nM)” value stood at 1.0.
On the same count and under the same terms, with `COC1CCN(C(=O)c2cc(Cc3n[nH]c(=O)c4cccc(Cl)c34)ccc2F)CC1` [Compound 104a, 5-chloro-4-(4-fluoro-3-(4-methoxypiperidine-1-carbonyl)benzyl)phthalazin-1(2H)-one] the figure was 1.3.
`CCOC1CCN(C(=O)c2cc(Cc3n[nH]c(=O)c4cccc(Cl)c34)ccc2F)CC1` [Compound 104b, 5-chloro-4-(3-(4-ethoxypiperidine-1-carbonyl)-4-fluorobenzyl)phthalazin-1(2H)-one]: the “PF50 (30 nM)” value is recorded as 2.2.
`O=C(COC1CCN(C(=O)c2cc(Cc3n[nH]c(=O)c4ccccc34)ccc2F)CC1)N1CCCC1` [Compound 107, 4-(4-fluoro-3-(4-(2-oxo-2-(pyrrolidin-1-yl)ethoxy)piperidine-1-carbonyl)benzyl)phthalazin-1(2H)-one]: the “PF50 (30 nM)” value turned out to be 1.7.
For `O=C(COC1CCN(C(=O)c2cc(Cc3n[nH]c(=O)c4ccccc34)ccc2F)CC1)N1CCCCC1` [Compound 113, 4-(4-fluoro-3-(4-(2-oxo-2-(piperidin-1-yl)ethoxy)piperidine-1-carbonyl)benzyl)phthalazin-1 (2H)-one], the “PF50 (30 nM)” value was 5.8 and the “PF50 (200 nM)” value is listed as 23.1.
`COC1CCN(C(=O)c2cccc(Cc3n[nH]c(=O)c4cccc(Cl)c34)c2)CC1` [Compound 119a, 5-chloro-4-(3-(4-methoxypiperidine-1-carbonyl)benzyl)phthalazin-1(2H)-one]: the “PF50 (30 nM)” value was found to be 1.0.
On the same count and under the same terms, then `CCOC1CCN(C(=O)c2cccc(Cc3n[nH]c(=O)c4cccc(Cl)c34)c2)CC1` [Compound 119b, 5-chloro-4-(3-(4-ethoxypiperidine-1-carbonyl)benzyl)phthalazin-1(2H)-one], with 1.2; and `COc1cccc2c(=O)[nH]nc(Cc3ccc(F)c(C(=O)N4CCC(OC)CC4)c3)c12` [Compound 126a, 4-(4-fluoro-3-(4-methoxypiperidine-1-carbonyl)benzyl)-5-methoxyphthalazin-1(2H)-one], with 11.0.
